Laboratory results reported in ChEMBL document CHEMBL4706474, “Tetrahydro-2-naphthyl and 2-Indanyl Triazolopyrimidines Targeting Plasmodium falciparum Dihydroorotate Dehydrogenase Display Potent and Selective Antimalarial Activity” (J Med Chem, 2016).
≈ marks a conversion by molar mass, not a printed value. Calls of active or inactive are those of the source. No cut-off for these calls is given here.

Tests used:
[1] = biological target: Dihydroorotate dehydrogenase (quinone), mitochondrial (Mus musculus, UniProt O35435)
Sequence of Dihydroorotate dehydrogenase (quinone), mitochondrial (Mus musculus, UniProt O35435) (O35435 whole entry): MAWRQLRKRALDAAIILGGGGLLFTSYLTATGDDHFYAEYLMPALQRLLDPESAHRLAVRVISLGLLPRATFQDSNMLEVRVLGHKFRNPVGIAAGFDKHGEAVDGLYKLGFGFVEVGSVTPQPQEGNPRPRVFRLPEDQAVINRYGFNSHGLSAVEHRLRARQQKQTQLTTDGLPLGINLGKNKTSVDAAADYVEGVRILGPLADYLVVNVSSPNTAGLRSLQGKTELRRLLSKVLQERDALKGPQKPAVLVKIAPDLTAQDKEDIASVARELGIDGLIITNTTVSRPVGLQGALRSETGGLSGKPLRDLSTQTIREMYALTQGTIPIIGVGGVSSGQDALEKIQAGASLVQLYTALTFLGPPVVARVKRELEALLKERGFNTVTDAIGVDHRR

[2] = Inhibition of N-terminal His6-tagged dog DHODH expressed in Escherichia coli BL21 using L-DHO as substrate and CoQ as co-substrate by DCIP dye based spectrophotometric assay; set-up: species or system Canis lupus familiaris
[3] = AUC (0 to infinity) in Swiss mouse at 20 mg/kg, po administered as single dose via gavage measured over 24 hrs by LC-MS analysis; type: ADME, organism-based; set-up: route oral, dose 20 mg/kg, time >24; settings: in vivo
[4] = system: Plasmodium falciparum; experiment: Antimalarial activity against chloroquine, pyrimethamine and cycloguanil resistant Plasmodium falciparum K1; type: functional, organism-based
[5] = Protein binding in Swiss mouse plasma at 20 mg/kg, po administered as single dose via gavage measured over 24 hrs by LC-MS analysis; type: ADME, organism-based; settings: read-out: PPB (converted)
[6] = system: Plasmodium falciparum; experiment: Antiplasmodial activity against Plasmodium falciparum 3D7 infected in RBC assessed as reduction in parasitemia incubated for 72 hrs by SYBR green dye-based assay; type: functional, organism-based; settings: Plasmodium falciparum, 3D7, Erythrocyte, 72 h
[7] = biological target: Dihydroorotate dehydrogenase (quinone), mitochondrial (Homo sapiens, UniProt Q02127); experiment: Inhibition of N-terminal His6-tagged human DHODH expressed in Escherichia coli BL21 using L-DHO as substrate and CoQ as co-substrate by DCIP dye based spectrophotometric assay
Sequence of Dihydroorotate dehydrogenase (quinone), mitochondrial (Homo sapiens, UniProt Q02127) (Q02127 whole entry, canonical isoform): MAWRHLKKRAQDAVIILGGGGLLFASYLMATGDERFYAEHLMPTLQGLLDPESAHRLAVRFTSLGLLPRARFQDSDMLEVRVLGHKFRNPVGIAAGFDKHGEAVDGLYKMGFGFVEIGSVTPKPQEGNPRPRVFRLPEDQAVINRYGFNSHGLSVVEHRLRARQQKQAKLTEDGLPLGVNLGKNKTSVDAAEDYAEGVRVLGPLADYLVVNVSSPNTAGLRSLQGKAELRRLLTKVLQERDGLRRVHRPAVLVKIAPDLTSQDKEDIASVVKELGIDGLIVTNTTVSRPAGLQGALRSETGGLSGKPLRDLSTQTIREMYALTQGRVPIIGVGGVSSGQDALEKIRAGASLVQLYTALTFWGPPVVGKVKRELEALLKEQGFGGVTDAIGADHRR

[8] = biological target: Cytochrome P450 2D6 (Homo sapiens, UniProt P10635); experiment: Inhibition of CYP2D6 in human liver microsomes using isoform-specific probe substrates in presence of NADPH-generating system by LC-MS analysis; type: ADME
Sequence of Cytochrome P450 2D6 (P10635 whole entry, canonical isoform): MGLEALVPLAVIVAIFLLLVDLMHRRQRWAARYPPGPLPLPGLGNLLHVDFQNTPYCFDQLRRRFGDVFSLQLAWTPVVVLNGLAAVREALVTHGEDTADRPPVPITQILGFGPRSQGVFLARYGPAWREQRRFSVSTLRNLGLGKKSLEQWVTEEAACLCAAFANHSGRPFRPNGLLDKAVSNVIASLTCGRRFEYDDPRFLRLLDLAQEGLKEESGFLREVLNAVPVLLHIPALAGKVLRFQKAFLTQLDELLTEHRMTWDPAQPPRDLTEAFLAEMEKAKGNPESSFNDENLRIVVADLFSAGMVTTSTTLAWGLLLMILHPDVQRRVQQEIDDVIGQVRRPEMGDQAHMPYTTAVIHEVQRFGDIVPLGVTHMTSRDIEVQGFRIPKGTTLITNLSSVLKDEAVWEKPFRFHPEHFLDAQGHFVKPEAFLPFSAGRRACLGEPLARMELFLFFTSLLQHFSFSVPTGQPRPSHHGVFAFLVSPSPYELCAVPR

[9] = Unbound AUC (0 to infinity) in Swiss mouse at 20 mg/kg, po administered as single dose via gavage measured over 24 hrs by LC-MS analysis; type: ADME, organism-based; settings: in vivo
[10] = system: Plasmodium falciparum; experiment: Antimalarial activity against Plasmodium falciparum D6; type: functional, organism-based
[11] = Intrinsic clearance in mouse liver microsomes at 1 uM by LC-MS analysis; type: ADME, Microsome
[12] = Unbound Cmax in Swiss mouse at 20 mg/kg, po administered as single dose via gavage measured over 24 hrs by LC-MS analysis; type: ADME, organism-based; settings: in vivo
[13] = Inhibition of N-terminal His6-tagged Plasmodium falciparum DHODH expressed in Escherichia coli BL21 using L-DHO as substrate and CoQ as co-substrate by DCIP dye based spectrophotometric assay
[14] = Intrinsic clearance in rat liver microsomes assessed per mg protein at 1 uM by LC-MS analysis; type: ADME, Microsome; settings: microsomes, 1 µM
[15] = biological target: Cytochrome P450 2C19 (Homo sapiens, UniProt P33261); experiment: Inhibition of CYP2C19 in human liver microsomes using isoform-specific probe substrates in presence of NADPH-generating system by LC-MS analysis; type: ADME; settings: read-out: IC50
Sequence of Cytochrome P450 2C19 (P33261 whole entry, canonical isoform): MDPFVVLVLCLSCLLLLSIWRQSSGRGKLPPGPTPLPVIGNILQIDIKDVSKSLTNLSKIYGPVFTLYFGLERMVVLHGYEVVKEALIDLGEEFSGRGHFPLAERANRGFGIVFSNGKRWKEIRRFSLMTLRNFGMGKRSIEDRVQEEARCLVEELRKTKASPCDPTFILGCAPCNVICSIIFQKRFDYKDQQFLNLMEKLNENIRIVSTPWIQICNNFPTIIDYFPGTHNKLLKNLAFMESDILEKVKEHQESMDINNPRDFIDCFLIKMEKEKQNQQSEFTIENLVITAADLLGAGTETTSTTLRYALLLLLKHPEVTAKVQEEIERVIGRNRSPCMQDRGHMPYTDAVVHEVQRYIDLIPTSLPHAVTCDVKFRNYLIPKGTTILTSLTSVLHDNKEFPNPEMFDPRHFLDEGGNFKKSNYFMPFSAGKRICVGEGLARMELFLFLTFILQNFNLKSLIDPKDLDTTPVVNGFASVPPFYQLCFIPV

[16] = biological target: Cytochrome P450 3A4 (Homo sapiens, UniProt P08684); experiment: Inhibition of CYP3A4 in human liver microsomes using isoform-specific probe substrates in presence of NADPH-generating system by LC-MS analysis; type: ADME; settings: read-out: IC50
Sequence of Cytochrome P450 3A4 (P08684 whole entry, canonical isoform): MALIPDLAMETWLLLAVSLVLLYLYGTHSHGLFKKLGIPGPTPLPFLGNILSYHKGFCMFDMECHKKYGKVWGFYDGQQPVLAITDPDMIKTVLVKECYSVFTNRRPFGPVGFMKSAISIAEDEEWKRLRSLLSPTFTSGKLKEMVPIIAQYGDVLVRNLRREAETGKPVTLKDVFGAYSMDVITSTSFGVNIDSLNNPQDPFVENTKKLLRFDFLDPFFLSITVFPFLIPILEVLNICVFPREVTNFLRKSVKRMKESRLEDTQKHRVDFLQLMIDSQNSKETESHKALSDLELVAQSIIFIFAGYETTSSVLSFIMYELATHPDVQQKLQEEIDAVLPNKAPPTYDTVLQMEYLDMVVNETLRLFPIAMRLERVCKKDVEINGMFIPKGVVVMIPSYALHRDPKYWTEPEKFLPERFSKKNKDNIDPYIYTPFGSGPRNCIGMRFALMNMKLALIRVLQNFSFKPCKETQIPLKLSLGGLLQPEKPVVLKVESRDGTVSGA

[17] = Solubility of compound in FaSSIF at pH 6.5 measured after 5 to 6 hrs by HPLC-UV based analysis
[18] = system: Plasmodium falciparum; experiment: Antimalarial activity against chloroquine, quinine, mefloquine, pyrimethamine, cycloguanil and sulfadoxine resistant Plasmodium falciparum Dd2; type: functional, organism-based
[19] = Protein binding in human plasma assessed as bound fraction by LC-MS analysis based ultracentrifugation assay; type: ADME, cell-free; settings: read-out: PPB (converted)
[20] = biological target: T1, Cytochrome P450 2B6 (Homo sapiens, UniProt P20813); experiment: Inhibition of CYP2B6 in human liver microsomes using isoform-specific probe substrates in presence of NADPH-generating system by LC-MS analysis; type: ADME
T1 sequence (P20813 whole entry): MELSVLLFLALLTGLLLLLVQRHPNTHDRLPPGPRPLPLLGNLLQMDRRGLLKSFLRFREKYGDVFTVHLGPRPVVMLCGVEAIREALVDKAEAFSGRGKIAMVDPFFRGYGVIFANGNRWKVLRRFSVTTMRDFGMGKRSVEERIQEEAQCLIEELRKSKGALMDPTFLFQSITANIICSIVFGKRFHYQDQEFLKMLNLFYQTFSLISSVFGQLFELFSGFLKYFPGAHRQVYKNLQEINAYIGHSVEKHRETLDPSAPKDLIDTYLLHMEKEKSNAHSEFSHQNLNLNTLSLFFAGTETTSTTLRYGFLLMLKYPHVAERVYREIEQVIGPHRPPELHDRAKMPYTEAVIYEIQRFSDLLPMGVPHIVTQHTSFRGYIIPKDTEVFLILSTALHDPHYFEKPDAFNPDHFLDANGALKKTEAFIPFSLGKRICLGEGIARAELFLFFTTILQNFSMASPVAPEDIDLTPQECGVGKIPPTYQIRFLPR

[21] = Elimination half-life in Swiss mouse at 20 mg/kg, po administered as single dose via gavage measured over 24 hrs by LC-MS analysis; type: ADME, organism-based; settings: in vivo, read-out: beta t1/2 (converted)
[22] = biological target: T2, Cytochrome P450 1A2 (Homo sapiens, UniProt P05177); experiment: Inhibition of CYP1A2 in human liver microsomes using isoform-specific probe substrate in presence of NADPH-generating system by LC-MS analysis; type: ADME
T2 sequence (P05177 whole entry): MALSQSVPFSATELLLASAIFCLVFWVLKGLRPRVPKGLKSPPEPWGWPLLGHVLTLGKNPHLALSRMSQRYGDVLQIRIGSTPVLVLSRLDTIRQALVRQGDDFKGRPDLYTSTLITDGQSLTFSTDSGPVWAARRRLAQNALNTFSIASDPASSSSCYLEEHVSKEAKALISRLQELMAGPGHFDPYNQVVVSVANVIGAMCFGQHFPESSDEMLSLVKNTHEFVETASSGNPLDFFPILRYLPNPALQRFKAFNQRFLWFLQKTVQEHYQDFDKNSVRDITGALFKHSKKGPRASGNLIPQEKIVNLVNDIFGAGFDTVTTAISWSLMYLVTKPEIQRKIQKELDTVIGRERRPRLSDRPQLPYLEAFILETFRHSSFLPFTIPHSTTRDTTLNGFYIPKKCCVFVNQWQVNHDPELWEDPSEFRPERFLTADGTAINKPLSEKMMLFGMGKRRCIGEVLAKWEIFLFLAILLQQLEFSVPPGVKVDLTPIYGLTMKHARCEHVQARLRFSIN

[23] = Inhibition of N-terminal His6-tagged Plasmodium vivax DHODH expressed in Escherichia coli BL21 using L-DHO as substrate and CoQ as co-substrate by DCIP dye based spectrophotometric assay
[24] = system: Plasmodium falciparum; experiment: Antimalarial activity against atovaquone, chloroquine, cycloguanil and pyrimethamine resistant Plasmodium falciparum TM90C2B; type: functional, organism-based
[25] = Solubility of compound in 0.1 N HCl measured after 5 to 6 hrs by HPLC-UV based analysis; type: physicochemical; settings: buffer; time 5-6 hrs
[26] = Lipophilicity, logD of the compound at pH 7.4; type: physicochemical; settings: buffer
[27] = system: Plasmodium falciparum; experiment: Antimalarial activity against pyrimethamine resistant Plasmodium falciparum HB3; type: functional, organism-based
[28] = Protein binding in mouse plasma assessed as bound fraction by LC-MS analysis based ultracentrifugation assay; type: ADME, cell-free; settings: read-out: PPB (converted)

SMILES | IC50 [1] [µM] | IC50 [2] [µM] | AUC [3] [µM·h] | Activity [4] | fraction unbound at 24 h [5] | EC50 [6] [µM] | IC50 [7] [µM] | IC50 [8] [µM] | fAUC [9] [µM·h] | Activity [10] | intrinsic clearance [11] [µL/min] | fCmax [12] [µM] | IC50 [13] [µM] | Intrinsic clearance in rat liver microsomes (uL/min/mg protein) [14] [µL/min] | IC50 [15] [µM] | IC50 [16] [µM] | solubility [17] [µg/mL] | Activity [18] | fraction unbound [19] | IC50 [20] [µM] | also measured
Cc1cc(NC2Cc3cc(F)c(F)cc3C2)n2nc(C(C)(F)F)nc2n1 | > 100 | > 100 | 169 | Active | 0.047 | 0.04 | > 100 | 5.9 | 7.9 | Active | 21 | 1.4 | 0.052 | < 7 | > 20 | > 20 | 15 (≈ 41.1 µM) | Active | 0.066 | > 20 | half-life [21]: 2 h; IC50 [22]: > 20 µM; IC50 [23]: 0.37 µM; Activity [24]: Active; solubility [25]: 180 µg/mL (≈ 493 µM); logD [26]: 3.4; Activity [27]: Active; fraction unbound [28]: 0.047
Cc1cc(N[C@H]2CCc3ccc(Cl)cc3C2)n2nc(C(C)(F)F)nc2n1 | > 100 | > 100 | 22.7 | Active | 0.026 | 0.0012 | > 100 | 2.7 | 0.59 | Active | 31 | 0.13 | 0.0063 | 38 | > 20 | > 20 | 12 (≈ 31.8 µM) | Active | 0.033 | > 20 | half-life [21]: 2 h; IC50 [22]: > 20 µM; IC50 [23]: 0.01 µM; Activity [24]: Active; solubility [25]: 105 µg/mL (≈ 278 µM); logD [26]: 3.9; Activity [27]: Active; fraction unbound [28]: 0.026
